Measured values from article PMC10945555, “Improving Activity of New Arylurea Agents against Multidrug-Resistant and Biofilm-Producing Staphylococcus epidermidis” (ACS Medicinal Chemistry Letters, 2024).
Values after ≈ are worked out from the molar mass of the structure shown.

Key:
[1] = system: Staphylococcus epidermidis ATCC 12228; test: MIC, broth microdilution, MSSE reference strain; format: cell-based; conditions: ATCC12228, Staphylococcus epidermidis ATCC 12228, read-out: MIC MSSE
Text: These strains included susceptible, multidrug-resistant, and biofilm-producing strains of S. epidermidis and S. aureus (MSSE, MDR/BPSE, and MDR/BPSA, respectively). The cornerstone antibiotic linezolid served as a positive control (Table 1). The impact of structural modifications at the aryloxy fragment and the aromatic moiety bound to the propyl linker on the inhibitory activity was initially investigated. […] Further optimization focused on evaluating the impact of the type of substituent and its position on the arylsulfonamide fragment’s activity.
2 Biological assay protocols
Microbiological tests were carried out under aseptic conditions in a laminar chamber of the 2nd […]
(BioTectum 1.2, Alchem Poland). The assessment of antimicrobial activity was carried out for final compounds in the form of free bases, soluble in DMSO (Merck, Germany), at the initial […]
concentration of 1 mg/mL. […]
were provided by Cayman Chemical, USA.
The activity of all newly synthesized compounds was tested in vitro on a panel of selected reference strains from the American Type Culture Collection (ATCC) of Gram-positive […]
2.2 Effect of evaluated compounds on planktonic cells
The susceptibility of three reference bacterial strains (Staphylococcus epidermidis ATCC […]
Table S1) and 81 clinical MDR S. epidermidis (Table S2) to the tested compounds was assessed by determining the MIC value (Minimal Inhibitory Concentration) by microdilution in a liquid medium in 96-well flat-bottom cell culture plates (Nest Biotechnology Scientific, USA). The antibacterial properties of the compo unds were tested in the concentration range from 50 µg/mL to 0.1 µg/mL by making a series of double dilutions of the compound in liquid Mueller -Hinton II Broth Cation Adjusted (MHB II, BBL TM, USA) according to the European Committee on […]
Antimicrobial Susceptibility Testing guidelines (EUCAST).2,3 The determinations were performed twice. The MIC50 and MIC90 values were determined for each of the tested

[2] = system: BJ cells; test: Cytotoxicity, MTT assay, skin fibroblasts; format: cell-based, human; conditions: Homo sapiens, MTT, 24 h, n = 3
Protocol: (§1) The following cell models were used in the research: rat cardiomyocytes (H9c2 line) and human skin fibroblasts (BJ line). All cell lines used in the work are commercially available and were purchased from ATCC banks (the American Type Culture Collection, Manassas, VI, USA). Cell cultures were carried out in an incubator under standard conditions (37°C, 5% CO 2).
(§2) Culture media (Dulbecco's Modified Eagle's Medium -DMEM (H9c2) and Eagle's Minimum Essential Medium-EMEM (BJ) were supplemented with 10% bovine serum and a 1% mixture of penicillin and streptomycin antibiotics. […]
(§3) doxorubicin (a cytotoxic drug) were used as reference and positive control, respectively. […]
(§4) solution (5 mg/mL) was transferred into culture medium of incubated cells. After 3 h, once dark crystals of formazan were produced in cells, medium was aspirated and 100 μ L of DMSO was added to dissolve formazan. Absorbance of DMSO solution was read on a multiwell plate reader (Spectra Max iD3, Molecular Devices) at 570 nm. In order to determine viability, absorbance of experimental wells was divided by absorbance of contro l well (not treated) and multiplied by 100 (%). Three separate experiments were performed. IC 50 was calculated using non-linear regression method in OriginPro software. […]

[3] = system: H9c2 cells; test: Cytotoxicity, MTT assay, cardiomyocytes; format: cell-based; conditions: Rattus norvegicus, 24 h, n = 3
Protocol: as §1, §2, §3
as §4, with “incubated with studied compound in appropriate concentration for next 24 h. Then MTT solution (5” for “solution (5”

[4] = system: biofilm-producing Staphylococcus epidermidis strains; test: Inhibition of biofilm formation (MBIC, resazurin); format: cell-based
Protocol: After 24 hours incubation each well of
concentration of 4 mg/mL was added. […]

Work on `O=S(=O)(NC1CCN(CCC(Oc2ccc(C(F)(F)F)cc2)c2ccccc2)CC1)c1cccc(Cl)c1` (stereo not drawn) [Compound 12] yielded an MIC [1] of at most 6.25 µg/mL, an IC50 [2] of 7.4 µg/mL (≈ 13.4 µM) and an IC50 [3] of 14.2 µg/mL (≈ 25.7 µM). For the same compound, the MBIC ([4]; S. epidermidis ATCC 35984 (Table S4)) was 31.25 µg/mL, the MBIC50 ([4]; Table S4 strains) was 125 µg/mL and the MBIC ([4]; clinical strain 1 (Table S4)) was 125 µg/mL. For the same compound, the MBIC ([4]; clinical strain 2 (Table S4)) was 125 µg/mL, the MBIC ([4]; clinical strain 3 (Table S4)) was 125 µg/mL and the MBIC ([4]; clinical strain 4 (Table S4)) was 125 µg/mL. The MBIC ([4]; clinical strain 5 (Table S4)) was 62.5 µg/mL, the MBIC ([4]; clinical strain 6 (Table S4)) was 125 µg/mL and the MBIC ([4]; clinical strain 7 (Table S4)) was 125 µg/mL. It also gave an MBIC ([4]; clinical strain 8 (Table S4)) of 15.6 µg/mL, an MBIC ([4]; clinical strain 9 (Table S4)) of 125 µg/mL and an MBIC ([4]; clinical strain 11 (Table S4)) of 125 µg/mL. It also gave an MBIC ([4]; clinical strain 12 (Table S4)) of 125 µg/mL, an MBIC ([4]; clinical strain 13 (Table S4)) of 62.5 µg/mL and an MBIC ([4]; clinical strain 15 (Table S4)) of 125 µg/mL. The MBIC ([4]; clinical strain 16 (Table S4)) was 62.5 µg/mL, the MBIC ([4]; clinical strain 17 (Table S4)) was 62.5 µg/mL and the MBIC ([4]; clinical strain 19 (Table S4)) was 31.25 µg/mL. For the same compound, the MBIC ([4]; clinical strain 21 (Table S4)) was 125 µg/mL, the MBIC ([4]; clinical strain 22 (Table S4)) was 125 µg/mL and the MBIC ([4]; clinical strain 23 (Table S4)) was 31.25 µg/mL. For the same compound, the MBIC ([4]; clinical strain 25 (Table S4, Figure 2)) was 31.25 µg/mL, the MBIC ([4]; clinical strain 26 (Table S4)) was 125 µg/mL and the MBIC ([4]; clinical strain 27 (Table S4)) was 250 µg/mL. The MBIC ([4]; clinical strain 28 (Table S4)) was 62.5 µg/mL, the MBIC ([4]; clinical strain 29 (Table S4)) was 62.5 µg/mL and the MBIC ([4]; clinical strain 30 (Table S4)) was 62.5 µg/mL. It also gave an MBIC ([4]; clinical strain 33 (Table S4)) of 125 µg/mL, an MBIC ([4]; clinical strain 35 (Table S4)) of 125 µg/mL and an MBIC ([4]; clinical strain 36 (Table S4)) of 62.5 µg/mL. It also gave an MBIC ([4]; clinical strain 37 (Table S4)) of 125 µg/mL, an MBIC ([4]; clinical strain 39 (Table S4)) of 31.25 µg/mL and an MBIC ([4]; clinical strain 40 (Table S4)) of 125 µg/mL. The MBIC ([4]; clinical strain 41 (Table S4)) was 125 µg/mL, the MBIC ([4]; clinical strain 42 (Table S4)) was 125 µg/mL and the MBIC ([4]; clinical strain 43 (Table S4)) was 250 µg/mL. It also gave an MBIC ([4]; clinical strain 44 (Table S4)) of 31.25 µg/mL, an MBIC ([4]; clinical strain 45 (Table S4)) of 125 µg/mL and an MBIC ([4]; clinical strain 46 (Table S4)) of 125 µg/mL. For the same compound, the MBIC ([4]; clinical strain 47 (Table S4)) was 62.5 µg/mL, the MBIC ([4]; clinical strain 49 (Table S4)) was 31.25 µg/mL and the MBIC ([4]; clinical strain 51 (Table S4)) was 125 µg/mL. It also gave an MBIC ([4]; clinical strain 55 (Table S4)) of 125 µg/mL, an MBIC ([4]; clinical strain 58 (Table S4)) of 125 µg/mL and an MBIC ([4]; clinical strain 59 (Table S4)) of 125 µg/mL. For the same compound, the MBIC ([4]; clinical strain 65 (Table S4)) was 125 µg/mL, the MBIC ([4]; clinical strain 66 (Table S4)) was 125 µg/mL and the MBIC ([4]; clinical strain 67 (Table S4)) was 125 µg/mL. It also gave an MBIC ([4]; clinical strain 70 (Table S4)) of 125 µg/mL, an MBIC ([4]; clinical strain 73 (Table S4)) of 31.25 µg/mL and an MBIC ([4]; clinical strain 74 (Table S4)) of 125 µg/mL. It also gave an MBIC ([4]; clinical strain 75 (Table S4)) of 31.25 µg/mL, an MBIC ([4]; clinical strain 78 (Table S4)) of 31.25 µg/mL and an MBIC ([4]; clinical strain 79 (Table S4)) of 31.25 µg/mL.
